# Results reported in patent US9796720B2, “Imidazole-derived modulators of the glucocorticoid receptor” (BRISTOL-MYERS SQUIBB COMPANY, priority 2013, dated 2017).
# Read-outs that look alike come from different tables or passages of the source.
# Key:
# [1] = biological target: human full-length glucocorticoid receptor (Homo sapiens (Human), UniProt P04150); assay: Glucocorticoid Receptor Binding Assay (II), fluorescence polarization competitor assay; settings: recombinant human full-length GR cell lysate, Fluormone GS1; read-out: GR (Ki, nM) (measured in GR binding Assay II)
# Sequence of human full-length glucocorticoid receptor (P04150 whole entry): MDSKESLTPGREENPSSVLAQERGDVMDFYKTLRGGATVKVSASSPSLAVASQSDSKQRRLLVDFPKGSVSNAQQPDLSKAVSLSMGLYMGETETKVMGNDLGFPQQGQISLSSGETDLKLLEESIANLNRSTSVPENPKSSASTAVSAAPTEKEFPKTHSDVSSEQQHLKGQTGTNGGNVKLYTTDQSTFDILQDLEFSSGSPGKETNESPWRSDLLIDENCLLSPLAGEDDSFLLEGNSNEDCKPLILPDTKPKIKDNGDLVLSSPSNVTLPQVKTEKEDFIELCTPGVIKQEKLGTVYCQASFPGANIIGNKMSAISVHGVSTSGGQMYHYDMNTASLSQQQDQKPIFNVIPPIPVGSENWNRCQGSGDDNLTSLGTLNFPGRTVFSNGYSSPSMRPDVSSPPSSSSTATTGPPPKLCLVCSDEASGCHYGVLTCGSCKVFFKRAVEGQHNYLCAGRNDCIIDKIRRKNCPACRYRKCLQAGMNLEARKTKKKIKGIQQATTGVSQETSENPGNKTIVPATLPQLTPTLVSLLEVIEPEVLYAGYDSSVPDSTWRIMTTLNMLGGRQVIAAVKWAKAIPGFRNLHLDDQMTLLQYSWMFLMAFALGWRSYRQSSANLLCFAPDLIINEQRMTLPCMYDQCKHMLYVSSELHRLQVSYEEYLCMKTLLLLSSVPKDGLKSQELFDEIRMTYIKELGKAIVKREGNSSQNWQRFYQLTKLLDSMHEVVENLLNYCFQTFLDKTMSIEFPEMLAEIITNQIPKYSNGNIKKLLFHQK
# Method: Glucocorticoid Receptor Binding Assay (II)
# In order to measure the binding of compounds on the glucocorticoid receptor a commercially available kit was used (Glucocorticoid receptor competitor assay kit, PanVera Co., Madison, Wis., P2816). Briefly, a cell lysate containing recombinantly expressed human full-length glucocorticoid receptor was mixed with a fluorescently labeled glucocorticoid (1 nM Fluormone GS1) in the presence or absence of test compound. After one hour at room temperature, the fluorescence polarization (FP) of the samples were measured.
# AP-1 = assay: Cellular transrepressional assay (AP-1 luciferase reporter in A549 cells, PMA-activated); assay type: cell-based; settings: for EC50: read-out: AP-1 (EC50, nM) (measured in cellular transrepression assay); for Emax: read-out: AP-1 Max % inhibition (measured in cellular transrepression assay)
# Method: Cellular Transrepressional Assay
# To measure the ability of test molecules to inhibit AP-1 induced transcriptional activity we utilized an A549 cell which was stably transfected with a plasmid containing 7×AP-1 DNA binding sites (pAP-1-Luc plasmid, Stratagene Co. La Jolla, Calif.) followed by the gene for luciferase. Cells were activated with 10 ng/ml of phorbol myristic acid (PMA) plus or minus test molecules for 7 hours. After 7 hours a luciferase reagent was added to measure luciferase enzymatic activity in the cell. After a 10 minute incubation of luciferase reagent with cells, luminescence was measured in a TOPCOUNT® luminescence counter. Repression of AP-1 activity was calculated as the percentage decrease in the signal induced by PMA alone. Test molecules were analyzed in the concentration range from 0.1 nM to 40 μM. EC50s were determined by using standard curve fitting methods such as Excel fit (Microsoft Co.). An EC50 is the test molecule concentration at which there is a 50% repression of the maximal inhibition of transcription, i.e., a 50% reduction of AP-1 activity.
# [2] = A549 cells, 7xAP-1 luciferase, PMA 10 ng/ml, 7 hours
Structure (SMILES),Ki [1] [nM],EC50 (AP-1; [2]) [nM],Emax (AP-1; [2]) [%],EC50 (AP-1; 7 h) [nM],Emax (AP-1; 7 h) [%]
"CC(C)(c1nc2nccnc2[nH]1)[C@@H]1c2ccc(-c3ccc(OC(F)(F)F)cc3)nc2Oc2c(F)cccc21 [Example 13, (S)-5-(2-(1H-Imidazo[4,5-b]pyrazin-2-yl)propan-2-yl)-9-fluoro-2-(4-(trifluoromethoxy)phenyl)-5H-chromeno[2,3-b]pyridine]",2.36,55.1,55.5,–,–
"CCOc1ccc(-c2ccc3c(n2)Oc2c(F)cccc2[C@@H]3C(C)(C)c2nc3nccnc3[nH]2)cc1 [Example 12, (S)-5-(2-(1H-Imidazo[4,5-b]pyrazin-2-yl)propan-2-yl)-2-(4-ethoxyphenyl)-9-fluoro-5H-chromeno[2,3-b]pyridine]",0.66,14.4,62.6,–,–
"CC(C)(c1nc2nccnc2[nH]1)[C@@H]1c2ccc(-c3ccncc3)nc2Oc2c(F)cccc21 [Example 21, (S)-5-(2-(1H-Imidazo[4,5-b]pyrazin-2-yl)propan-2-yl)-9-fluoro-2-(pyridin-4-yl)-5H-chromeno[2,3-b]pyridine]",3.92,21.1,45.9,–,–
"CC(C)Oc1ccc(-c2ccc3c(n2)Oc2c(F)cccc2[C@@H]3C(C)(C)c2nc3nccnc3[nH]2)cc1 [Example 8, (S)-5-(2-(1H-Imidazo[4,5-b]pyrazin-2-yl)propan-2-yl)-9-fluoro-2-(4-isopropoxyphenyl)-5H-chromeno[2,3-b]pyridine]",0.76,9.82,69.8,–,–
"CC(C)(c1nc2cncnc2[nH]1)[C@@H]1c2ccc(-c3ccc(C(=O)N4CCOCC4)cc3)nc2Oc2c(F)cccc21 [Example 16, (S)-(4-(5-(2-(9H-Purin-8-yl)propan-2-yl)-9-fluoro-5H-chromeno[2,3-b]pyridin-2-yl)phenyl)(morpholino)methanone]",12.4,169,52.2,–,–
"CC(C)(c1nc2cccnc2[nH]1)[C@@H]1c2ccc(-c3ccc(C(=O)N4CCOCC4)cc3)nc2Oc2c(F)cccc21 [Example 15, (S)-(4-(5-(2-(3H-Imidazo[4,5-b]pyridin-2-yl)propan-2-yl)-9-fluoro-5H-chromeno[2,3-b]pyridin-2-yl)phenyl)(morpholino)methanone]",121,864,29.3,–,–
"CC(=O)Nc1ccc(-c2ccc3c(n2)Oc2c(F)cccc2[C@@H]3C(C)(C)c2nc3nccnc3[nH]2)cc1 [Example 19, (S)-N-(4-(5-(2-(1H-Imidazo[4,5-b]pyrazin-2-yl)propan-2-yl)-9-fluoro-5H-chromeno[2,3-b]pyridin-2-yl)phenyl)acetamide]",70.5,1950,44.6,–,–
"CC(C)(C)Oc1ccc(-c2ccc3c(n2)Oc2c(F)cccc2[C@@H]3C(C)(C)c2nc3nccnc3[nH]2)cc1 [Example 11, (S)-5-(2-(1H-Imidazo[4,5-b]pyrazin-2-yl)propan-2-yl)-2-(4-tert-butoxyphenyl)-9-fluoro-5H-chromeno[2,3-b]pyridine]",0.82,–,–,37.5,76.3
